Test results from patent US20100184190A1, “Influencing viral lipid constituents” (priority 2006, published 2010).

System: chicken embryo kidney (CEK) cells
Experiment: FTIR microscopy of membrane phase transitions of treated CEK cell membranes
Assay type: cell-based
Settings: treated versus control
Source text: The hydrophobic pocket of cyclodexrins has the ability to sequester cholesterol from membranes. When membrane cholesterol content was reduced by cyclodextrin treatment, as compared to the control of FIG. 1A, lipid mobility was reduced and the lipids found more ordered, as shown in FIG. 1B.

Substance: cyclodextrin
- change of membrane lipid order / melting groups (FTIR): significant increase in about 45 °C melting lipid ordered groups

Substance: sphingomyelinase
- change of membrane lipid order / melting groups (FTIR): significant reduction in the lower melting groups and a large increase in more ordered high melting membrane lipid groups
